Consider 23 compounds from patent publication US20080293749A1, “Pyrrolidine(thi)ones Substituted by Heterocyclic Substituents in The 3-Position” (Gruenenthal GmbH, priority 2005, published 2008).

In brackets after ≈: the same amount, converted by molar mass.

Data set [1] deals with IL-12 production of LPS-activated monocytes. Description: Inhibition of IL-12 production of LPS-activated human monocytes (sandwich ELISA of culture supernatants). The format is cell-based. Particulars: human CD14-positive monocytes, 1 h preincubation with test substance, 10 μg/ml LPS from E. coli, 24 hours; for IC50: Monocyte. As to the method:
(§1) Stimulation of human monocytes with lipopolysaccharide for secretion of IL-10 and IL-12:
(§2) Human monocytes were isolated from peripheral blood mononuclear cells (PBMC), which were obtained from heparinized whole blood by means of a Ficoll density gradient centrifugation. For this, the PBMC were incubated with a monoclonal antibody which is directed against the monocyte-specific surface molecule CD14 and to which superparamagnetic microbeads (Miltenyi Biotech, Bergisch Gladbach) are coupled. For positive selection of the labelled monocytes from the cell mixture of the PBMC, the entire cell suspension was applied to a column with a ferromagnetic carrier matrix and this was placed in a magnetic field. The cells loaded with microbeads were thereby bound to the carrier matrix, and non-labelled cells passed through the column and were discarded. After removing the matrix from the magnetic field, the antibody-laden cells were eluted by rinsing the now demagnetized column with buffer. The purity of this CD14-positive monocyte population obtained in this way is about 95-98%. These monocytes were incubated in a density of 10^6 cells/ml of culture medium (RPMI, supplemented with 10% foetal calf serum) with the test substances, dissolved in DMSO, at 37° C. and 5% CO2 for one hour. 10 μg/ml of LPS from E. coli were then added. After 24 hours, cell-free culture supernatants were taken and tested for the content of IL-10 and IL-12.
(§3) The concentration of IL-12 and IL-10 in the cell culture supernatants was determined by means of sandwich ELISAs using two anti-IL-12 and, respectively, IL-10 monoclonal antibodies (Biosource Europe, Fleurus, Belgium). A reference standard curve with human IL-10 and, respectively, IL-12 was included. The detection limit of the ELISAs was 15 pg/ml.

A short description of data set [2]: Pharmacokinetics after intravenous administration to rats (plasma concentration/time curves). The format is in vivo. Particulars: 10 mg/kg each, both compounds given together, estimated from the FIGURE. The protocol: Volumes of 2 ml/kg were administered intravenously to rats through the tail vein. After defined times, blood samples were taken from the retro-orbital plexus and plasma obtained. Plasma concentrations of both compounds were determined using valid bioanalytical methods.

Data set [3] has as its system IL-10 production of LPS-activated monocytes. The data set is described as follows: Increase in IL-10 production of LPS-activated human monocytes (sandwich ELISA of culture supernatants). The format is cell-based. Particulars: human CD14-positive monocytes, 1 h preincubation with test substance, 10 μg/ml LPS from E. coli, 24 hours; for EC200: Monocyte. As to the method:
as §1, §2, §3
For orientation: ELISA stands for enzyme-linked immunosorbent assay.

In data set [1], `O=C1CC(N2C=Nc3cc(F)ccc3C2)C(=O)N1` (stereo not shown) [Example 3, 3-(7-fluoro-4H-quinazolin-3-yl)-pyrrolidine-2,5-dione] had an IC50 of 0.13 µg/mL (≈ 0.526 µM). For the same compound, the distribution volume in data set [2] is 0.26 L/kg. In data set [3], this compound registered an EC200 of 0.4 µg/mL.

Regarding `Cc1cccc2c1CN(C1CC(=O)NC1=O)C=N2` (stereo not shown) [Example 8b, 3-(5-methyl-4H-quinazolin-3-yl)-pyrrolidine-2,5-dione], the melting point fell in the range of 221 to 224 °C. Further, in data set [1], the IC50 was found to be 7.3 µg/mL (≈ 30 µM). In addition, in data set [3], the EC200 was more than 50 µg/mL.

Regarding `O=C1CC(N2C=Nc3cc4ccccc4cc3C2)C(=O)N1` (stereo not shown) [Example 8c, 3-(4H-benzo[q]quinazolin-3-yl)-pyrrolidine-2,5-dione], the “Inhibition of IL-12 production IC50” value in data set [1] turned out to be 4 µg/mL. In addition, the “Increase in IL-10 production EC200” value in data set [3] was more than 50000 ng/mL.

In turn, `O=C1CC(N2C=Nc3cc(F)c(F)cc3C2)C(=O)N1` (stereo not shown) [Example 8d, 3-(6,7-difluoro-4H-quinazolin-3-yl)-pyrrolidine-2,5-dione] displayed an IC50 in data set [1] of 0.715 µg/mL (≈ 2.7 µM). Further, the EC200 in data set [3] is more than 50 µg/mL.

The compound `O=C1CC(N2C=Nc3cc(Cl)ccc3C2)C(=O)N1` (stereo not shown) [Example 8g, 3-(7-chloro-4H-quinazolin-3-yl)-pyrrolidine-2,5-dione] displayed a melting point of 194 °C. The IC50 in data set [1] came to 0.62 µg/mL (≈ 2.35 µM). In addition, in data set [3], the EC200 worked out at 1 µg/mL.

The compound `COc1ccc2c(c1)N=CN(C1CC(=O)NC1=O)C2` (stereo not shown) [Example 9b, 3-(7-methoxy-4H-quinazolin-3-yl)-pyrrolidine-2,5-dione] had a melting point of 174 to 184 °C. In data set [1], this compound showed an IC50 of 15 µg/mL (≈ 57.9 µM). The EC200 in data set [3] was 16 µg/mL.

Turning to `O=C1CC(N2C=Nc3cccc(Cl)c3C2)C(=O)N1` (stereo not shown) [Example 10a, 3-(5-chloro-4H-quinazolin-3-yl)-pyrrolidine-2,5-dione], the melting point worked out at 218 °C. The compound further displayed an IC50 in data set [1] of 0.303 µg/mL (≈ 1.15 µM). This compound also registered an EC200 in data set [3] of 16 µg/mL.

`O=C1CC(N2C=Nc3ccc(Cl)cc3C2)C(=O)N1` (stereo not shown) [Example 10c, 3-(6-chloro-4H-quinazolin-3-yl)-pyrrolidine-2,5-dione]: the melting point amounted to 166 °C. This compound also came in with an IC50 in data set [1] of 1.17 µg/mL (≈ 4.44 µM). The EC200 in data set [3] was more than 50 µg/mL.

Compound `O=C1CC(N2C=Nc3ccccc3C2)C(=O)N1` (stereo not shown) [Example 11a, 3-(4H-quinazolin-3-yl)-pyrrolidine-2,5-dione] had a melting point of 168 to 174 °C. Inhibition in data set [1] was half-maximal at 0.6 µg/mL (≈ 2.62 µM) (IC50). The compound further returned an EC200 in data set [3] of 5 µg/mL.

For `O=C1CC(N2C=Nc3cccc(F)c3C2)C(=O)N1` (stereo not shown) [Example 11b, 3-(5-fluoro-4H-quinazolin-3-yl)-pyrrolidine-2,5-dione], the melting point was in the range of 184 to 191 °C. In data set [1], this compound gave an IC50 of 0.514 µg/mL (≈ 2.08 µM). Further, in data set [3], the EC200 was 5.6 µg/mL.

Consider `COc1cccc2c1CN(C1CC(=O)NC1=O)C=N2` (stereo not shown) [Example 12a, 3-(5-methoxy-4H-quinazolin-3-yl)-pyrrolidine-2,5-dione], for which the IC50 in data set [1] is 1.8 µg/mL (≈ 6.94 µM). In data set [3], this compound came in with an EC200 of more than 50 µg/mL.

As to `O=C1CC(N2C=Nc3cccc([N+](=O)[O-])c3C2)C(=O)N1` (stereo not shown) [Example 14, 3-(5-nitro-4H-quinazolin-3-yl)-pyrrolidine-2,5-dione], in data set [1], the IC50 amounted to 5.71 µg/mL (≈ 20.8 µM). The compound also had an EC200 in data set [3] of 20 µg/mL.

For the compound `CC1=Nc2ccccc2CN1C1CC(=O)NC1=O` (stereo not shown) [Example 15b, 3-(2-methyl-4H-quinazolin-3-yl)-pyrrolidine-2,5-dione], the melting point lay within 72 to 75 °C. The IC50 in data set [1] was determined as 4 µg/mL (≈ 16.5 µM). The compound further registered an EC200 in data set [3] of more than 50 µg/mL.

`CC1=Nc2cc(Cl)ccc2CN1C1CC(=O)NC1=O` (stereo not shown) [Example 15bb, 3-(7-chloro-2-methyl-4H-quinazolin-3-yl)-pyrrolidine-2,5-dione]: the melting point lay within 153 to 155 °C. In data set [1], this compound came in with an IC50 of 0.419 µg/mL (≈ 1.51 µM). The compound further returned an EC200 in data set [3] of 5.6 µg/mL.

Regarding `CC1=Nc2cc(F)ccc2CN1C1CC(=O)NC1=O` (stereo not shown) [Example 15cc, 3-(7-fluoro-2-methyl-4H-quinazolin-3-yl)-pyrrolidine-2,5-dione], half-maximal inhibition in data set [1] (IC50) required 6 µg/mL (≈ 23 µM). Also, the EC200 in data set [3] was 20 µg/mL.

Consider `CC1=Nc2cc(F)cc(F)c2CN1C1CC(=O)NC1=O` (stereo not shown) [Example 15e, 3-(5,7-difluoro-2-methyl-4H-quinazolin-3-yl)-pyrrolidine-2,5-dione], for which the melting point was 176 to 178 °C. Also, in data set [1], the IC50 was found to be 0.52 µg/mL (≈ 1.86 µM). This compound showed an EC200 in data set [3] of 3 µg/mL.

As for `CC1=Nc2cccc(Br)c2CN1C1CC(=O)NC1=O` (stereo not shown) [Example 15h, 3-(5-bromo-2-methyl-4H-quinazolin-3-yl)-pyrrolidine-2,5-dione], the IC50 in data set [1] was 4 µg/mL (≈ 12.4 µM). For the same compound, the EC200 in data set [3] is more than 50 µg/mL.

`CC1=Nc2cccc(Cl)c2CN1C1CC(=O)NC1=O` (stereo not shown) [Example 15i, 3-(5-chloro-2-methyl-4H-quinazolin-3-yl)-pyrrolidine-2,5-dione] gave a melting point of 163 to 170 °C. In data set [1], the IC50 came out at 0.884 µg/mL (≈ 3.18 µM). In data set [3], the EC200 came out at 15 µg/mL.

Take `CC1=Nc2cc(F)cc(Cl)c2CN1C1CC(=O)NC1=O` (stereo not shown) [Example 15j, 3-(5-chloro-7-fluoro-2-methyl-4H-quinazolin-3-yl)-pyrrolidine-2,5-dione]: the melting point is 179 to 181 °C. For the same compound, in data set [1], the IC50 was determined as 0.521 µg/mL (≈ 1.76 µM). Besides, the EC200 in data set [3] amounted to 5 µg/mL.

`CC1=Nc2cccc(F)c2CN1C1CC(=O)NC1=O` (stereo not shown) [Example 15l, 3-(5-fluoro-2-methyl-4H-quinazolin-3-yl)-pyrrolidine-2,5-dione]: the melting point is 185 °C. Further, in data set [1], the IC50 came to 2 µg/mL (≈ 7.66 µM). This compound also registered an EC200 in data set [3] of 5.6 µg/mL.

For the compound `CC1=Nc2cc(F)c(F)cc2CN1C1CC(=O)NC1=O` (stereo not shown) [Example 15u, 3-(6,7-difluoro-2-methyl-4H-quinazolin-3-yl)-pyrrolidine-2,5-dione], the melting point was 183 to 185 °C. Further, in data set [1], the IC50 was 1.8 µg/mL (≈ 6.45 µM). This compound registered an EC200 in data set [3] of more than 50 µg/mL.

Regarding `O=C1CCC(N2C(=O)c3ccccc3C2=O)C(=O)N1` (stereo not shown) [Thalidomide, thalidomide, reference compound], the IC50 in data set [1] is 0.07 µg/mL (≈ 0.271 µM). In data set [3], this compound came in with an EC200 of 20 µg/mL.

With `O=C1CC(N2C(=O)c3ccccc3C2=O)C(=O)N1` (stereo not shown) [XXVIII = C1, 2-(2,5-dioxo-pyrrolidin-3-yl)-isoindole-1,3-dione, reference compound], the half-maximal inhibitory concentration (IC50) in data set [1] was more than 50 µg/mL. Moreover, the “Increase in IL-10 production EC200” value in data set [3] is listed as “no increase”.

By IC50 is commonly meant the concentration that gives 50% inhibition. As usually defined, the melting point is the temperature of the solid-liquid transition.
